Assay results reported in patent US7902223B2, “Phenyl derivatives as factor XA inhibitors” (Merck Patent GmbH, priority 2001, dated 2011).

How the values were obtained:
FXa = FXa (Homo sapiens, UniProt P00742); assay: Factor Xa inhibition (FXa-IC50); assay type: biochemical
Description: The inhibition of factor Xa by the compounds according to the invention and the measurement of the anticoagulant and antithrombotic activity can be determined by conventional in-vitro or in-vivo methods. A suitable method is described, for example, by J. Hauptmann et al. in Thrombosis and Haemostasis 1990, 63, 220-223.
The inhibition of factor Xa can be measured, for example, by the method of T. Hara et al. in Thromb. Haemostas. 1994, 71, 314-319.

TF/FVIIa = TF/FVIIa (Homo sapiens, UniProt P08709); assay: TF/factor VIIa inhibition (TF/FVIIa-IC50); assay type: biochemical
Description: The inhibition of factor VIIa by the compounds according to the invention and the measurement of the anticoagulant and antithrombotic activity can be determined by conventional in-vitro or in-vivo methods. A conventional method for the measurement of the inhibition of factor VIIa is described, for example, by H. F. Ronning et al. in Thrombosis Research 1996, 84, 73-81.

Chain of TF/FVIIa (P08709 213-466 limits assumed): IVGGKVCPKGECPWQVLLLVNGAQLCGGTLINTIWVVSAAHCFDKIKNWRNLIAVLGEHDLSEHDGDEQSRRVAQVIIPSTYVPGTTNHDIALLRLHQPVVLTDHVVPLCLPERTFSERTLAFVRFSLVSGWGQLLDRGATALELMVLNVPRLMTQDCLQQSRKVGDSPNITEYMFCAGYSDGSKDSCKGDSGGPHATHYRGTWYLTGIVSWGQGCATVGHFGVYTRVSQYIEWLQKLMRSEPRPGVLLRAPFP
Chain of TF/FVIIa (P08709 61-212 limits assumed): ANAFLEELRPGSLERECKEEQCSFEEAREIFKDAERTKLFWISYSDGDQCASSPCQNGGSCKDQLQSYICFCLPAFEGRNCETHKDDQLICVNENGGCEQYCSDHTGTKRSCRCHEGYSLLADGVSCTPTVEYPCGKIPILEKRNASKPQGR
Chain of TF/FVIIa (P13726 33-295 partner): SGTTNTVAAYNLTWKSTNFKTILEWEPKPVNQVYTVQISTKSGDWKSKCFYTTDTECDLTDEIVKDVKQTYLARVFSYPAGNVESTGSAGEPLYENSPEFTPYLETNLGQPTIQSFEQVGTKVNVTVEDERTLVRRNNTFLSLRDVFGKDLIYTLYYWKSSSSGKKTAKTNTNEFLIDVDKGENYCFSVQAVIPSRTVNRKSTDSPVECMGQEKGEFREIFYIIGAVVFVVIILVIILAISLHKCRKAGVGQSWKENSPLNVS
Chain of FXa (P00742 235-488 limits assumed): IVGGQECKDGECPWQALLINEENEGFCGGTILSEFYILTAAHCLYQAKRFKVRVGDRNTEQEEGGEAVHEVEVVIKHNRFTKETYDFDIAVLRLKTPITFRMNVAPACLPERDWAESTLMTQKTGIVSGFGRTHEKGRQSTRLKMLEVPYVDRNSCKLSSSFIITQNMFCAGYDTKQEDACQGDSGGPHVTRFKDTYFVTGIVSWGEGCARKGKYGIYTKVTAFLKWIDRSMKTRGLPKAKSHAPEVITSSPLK
Chain of FXa (P00742 41-179 limits assumed): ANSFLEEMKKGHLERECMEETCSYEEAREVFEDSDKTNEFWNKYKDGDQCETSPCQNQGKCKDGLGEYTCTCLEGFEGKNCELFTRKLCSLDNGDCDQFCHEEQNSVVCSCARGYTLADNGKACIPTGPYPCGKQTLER

| Compound | IC50 (FXa) | IC50 (TF/FVIIa) |
| --- | --- | --- |
| CCCC(Oc1ccc2ccnc(N)c2c1)C(=O)Nc1ccc(N2CCCCC2=O)cc1 (stereo not shown) [AA, N-[4-(2-Oxopiperidin-1-yl)phenyl]-2-(1-aminoisoquinolin-7-yloxy)-pentanamide] | 350 nM | 220 nM |
| Nc1nccc2ccc(OC(C(=O)Nc3ccc(N4CCCCC4=O)cc3)c3ccccc3)cc12 (stereo not shown) [AB, N-[4-(2-oxopiperidin-1-yl)phenyl]-2-(1-aminoisoquinolin-7-yloxy)-2-phenylacetamide] | 350 nM | 200 nM |
